Laboratory results taken from the supplement of paper PMC10307832.

Columns and labels:
Test in all cases: relative viability (nuclei count vs DMSO), 5 days (fraction); higher = more cells survive
[1] = compound: C1COCCN1C2=NC(=NC3=C2OC4=C3C=CC=N4)C5=CC(=CC=C5)NC(=O)C6=CN=C(C=C6)N + Nc1nc2[nH]cc(CCc3ccc(C(=O)N[C@@H](CCC(=O)O)C(=O)O)cc3)c2c(=O)[nH]1 [Pemetrexed] (partner 0.2 µM)
Method in brief: (§1)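 Five library-drug doses in √10 steps were combined with a fixed anchor-drug dose, or a single drug was given alone, by pin tool to lung cancer cell lines in 1536-well plates the day after seeding. Nuclei were stained and counted after 5 days. Relative viability is the nuclei count in treated wells over that in vehicle wells, taken as the median of duplicate plates.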

SGI-1776 + AZD7762 = compound: CN1CCC(CNc2ccc3ncc(-c4cccc(OC(F)(F)F)c4)n3n2)CC1 [SGI-1776] + NC(=O)Nc1cc(-c2cccc(F)c2)sc1C(=O)N[C@H]1CCCNC1 [AZD7762] (partner 0.2 µM)
Method in brief: as §1

[2] = compound: C1COCCN1C2=NC(=NC3=C2OC4=C3C=CC=N4)C5=CC(=CC=C5)NC(=O)C6=CN=C(C=C6)N + CC(=O)Nc1cccc(-n2c(=O)n(C3CC3)c(=O)c3c(Nc4ccc(I)cc4F)n(C)c(=O)c(C)c32)c1 [Trametinib] (partner 0.02 µM)
Method in brief: as §1

SGI-1776 + Luminespib = compound: CN1CCC(CNc2ccc3ncc(-c4cccc(OC(F)(F)F)c4)n3n2)CC1 [SGI-1776] + CCNC(=O)c1noc(-c2cc(C(C)C)c(O)cc2O)c1-c1ccc(CN2CCOCC2)cc1 [Luminespib] (partner 0.01 µM)
Method in brief: as §1

Row | Cell Line | relative viability ([1]; first compound 0.02 µM) | relative viability ([1]; first compound 0.06325 µM) | relative viability ([1]; first compound 0.2 µM) | relative viability ([1]; first compound 0.6325 µM) | relative viability ([1]; first compound 2 µM) | relative viability (SGI-1776 + AZD7762; first compound 0.08 µM) | relative viability (SGI-1776 + AZD7762; first compound 0.8 µM) | relative viability (SGI-1776 + AZD7762; first compound 2.53 µM) | relative viability (SGI-1776 + AZD7762; first compound 8 µM) | relative viability ([2]; first compound 0.02 µM) | relative viability ([2]; first compound 0.06325 µM) | relative viability ([2]; first compound 0.2 µM) | relative viability ([2]; first compound 0.6325 µM) | relative viability ([2]; first compound 2 µM) | relative viability (SGI-1776 + Luminespib; first compound 0.08 µM) | relative viability (SGI-1776 + Luminespib; first compound 0.8 µM) | relative viability (SGI-1776 + Luminespib; first compound 2.53 µM) | relative viability (SGI-1776 + Luminespib; first compound 8 µM)
1 | SW 900 | 0.497 | 0.476 | 0.455 | 0.469 | 0.254 | 0.852 | 0.745 | 0.676 | 0.568 | 0.596 | 0.965 | 0.807 | 0.583 | 0.513 | 0.178 | 0.173 | 0.208 | 0.166
2 | NCI-H1944 | 0.65 | 0.719 | 0.589 | 0.64 | 0.545 | 0.619 | 0.595 | 0.518 | 0.441 | 0.378 | 0.453 | 0.451 | 0.382 | 0.377 | 0.871 | 0.67 | 0.669 | 0.618
3 | NCI-H838 | 0.257 | 0.246 | 0.25 | 0.242 | 0.167 | 0.944 | 0.961 | 0.932 | 0.916 | 0.52 | 0.529 | 0.463 | 0.41 | 0.298 | 0.231 | 0.331 | 0.349 | 0.254
4 | NCI-H1651 | 0.615 | 0.581 | 0.572 | 0.599 | 0.31 | 0.537 | 0.519 | 0.494 | 0.419 | 0.842 | 0.867 | 0.836 | 0.818 | 0.731 | 0.823 | 0.977 | 0.784 | 0.642
5 | HCC-827 | 0.249 | 0.284 | 0.262 | 0.278 | 0.265 | 0.25 | 0.26 | 0.241 | 0.146 | 0.488 | 0.573 | 0.459 | 0.483 | 0.408 | 0.551 | 0.622 | 0.782 | 0.348
6 | HCC-366 | 0.186 | 0.189 | 0.195 | 0.219 | 0.0985 | 0.248 | 0.263 | 0.298 | 0.26 | 0.4 | 0.341 | 0.394 | 0.231 | 0.138 | – | – | – | –
7 | HARA | 0.253 | 0.261 | 0.204 | 0.246 | 0.141 | 0.345 | 0.306 | 0.292 | 0.218 | 0.728 | 0.738 | 0.848 | 0.433 | 0.601 | 0.862 | 0.67 | 0.67 | 0.0476
8 | NCI-H441 | 0.278 | 0.251 | 0.248 | 0.245 | 0.251 | 1.25 | 1.2 | 1.07 | 1.13 | 0.453 | 0.423 | 0.29 | 0.337 | 0.312 | 0.379 | 0.294 | 0.312 | 0.239
9 | RERF-LC-KJ | 0.507 | 0.46 | 0.484 | 0.457 | 0.376 | 0.912 | 1.08 | 0.831 | 0.828 | 0.808 | 0.971 | 0.91 | 0.893 | 0.689 | 1.23 | 1.17 | 0.904 | 0.688
10 | CAL-12T | 1.2 | 1.27 | 1.17 | 1.32 | 0.412 | 0.739 | 0.667 | 0.567 | 0.654 | 0.28 | 0.324 | 0.272 | 0.354 | 0.303 | 0.331 | 0.394 | 0.452 | 0.519
11 | COR-L 105 | 1.13 | 1.25 | 0.967 | 1.16 | 0.642 | – | – | – | – | 0.421 | 0.411 | 0.415 | 0.403 | 0.465 | 0.741 | 0.713 | 0.691 | 0.834
12 | NCI-H2405 | 1.04 | 1.11 | 1.03 | 0.968 | 0.989 | 0.706 | 0.728 | 0.57 | 0.608 | 0.478 | 0.722 | 0.672 | 0.553 | 0.418 | 0.647 | 0.632 | 0.538 | 0.452
13 | NCI-H2228 | 0.348 | 0.345 | 0.299 | 0.26 | 0.144 | – | – | – | – | 0.578 | 0.615 | 0.449 | 0.48 | 0.454 | 0.169 | 0.139 | 0.164 | 0.13
14 | PC-14 | 0.14 | 0.135 | 0.129 | 0.0787 | 0.0733 | 0.474 | 0.352 | 0.27 | 0.146 | 0.758 | 0.932 | 0.682 | 0.633 | 0.229 | 0.154 | 0.138 | 0.126 | 0.129
15 | NCI-H2342 | 0.839 | 0.739 | 0.753 | 0.796 | 0.713 | 0.57 | 0.625 | 0.442 | 0.517 | 0.743 | 0.963 | 0.807 | 0.805 | 0.79 | 0.695 | 0.767 | 0.721 | 0.64
16 | NCI-H1623 | – | – | – | – | – | – | – | – | – | – | – | – | – | – | 0.468 | 0.612 | 0.576 | 0.506
17 | SW 1573 | 0.925 | 0.731 | 0.794 | 0.812 | 0.322 | – | – | – | – | 0.744 | 0.573 | 0.476 | 0.534 | 0.476 | 0.281 | 0.653 | 0.314 | 0.185
18 | NCI-H2087 | 0.653 | 0.611 | 0.61 | 0.619 | 0.258 | 1.29 | 1.36 | 1.44 | 1.27 | 0.209 | 0.178 | 0.234 | 0.193 | 0.173 | 0.138 | 0.212 | 0.183 | 0.17
19 | NCI-H520 | 0.653 | 0.752 | 0.655 | 0.685 | 0.351 | – | – | – | – | 0.493 | 0.806 | 0.758 | 0.528 | 0.494 | 0.209 | 0.218 | 0.244 | 0.281
